Data on one compound can be found in patent US20080255158A1, “Fungicidal Mixtures” (BASF Aktiengesellschaft, priority 2004, published 2008).

The assay concerns Cochliobolus miyabeanus. Kind of assay: Activity against brown spot of rice caused by Cochliobolus miyabeanus, protective application. Type of assay: in vivo. As to conditions: individual active compound, 16 ppm in the spray liquor, rice leaves, 6 days after inoculation. The method, then:
The active compounds, separately or jointly, were prepared as a stock solution comprising 0.25% by weight of active compound in acetone or DMSO. 1% by weight of the emulsifier Uniperol® EL (wetting agent having emulsifying and dispersing action based on ethoxylated alkylphenols) was added to this solution, and the mixture was appropriately diluted with water to the desired concentration.
Use example—Activity against brown spot of rice caused by Cochliobolus miyabeanus, protective application
Leaves of rice seedlings of the cultivar “Tai-Nong 67” which had been grown in pots were sprayed to runoff point with an aqueous suspension having the concentration of active compound stated below. The next day, the plants were inoculated with an aqueous spore suspension of Cochliobolus miyabeanus. The test plants were then placed in climatized chambers at 22-24° C. and 95-99% relative atmospheric humidity for 6 days. The extent of the development of infection on the leaves was then determined visually.
Evaluation is carried out by determining the infected leaf areas in percent. These percentages were converted into efficacies.
The efficacy (E) is calculated as follows using Abbot's formula: […]
The expected efficacies of the mixtures of active compounds are determined using Colby's formula [R. S. Colby, Weeds, 15, 20-22 (1967)] and are compared with the observed efficacies. […]

In the case of `CC1CCN(c2c(-c3c(F)cc(F)cc3F)c(Cl)nc3ncnn23)CC1` [compound I, 5-chloro-7-(4-methylpiperidin-1-yl)-6-(2,4,6-trifluorophenyl)[1,2,4]tri-azolo[1,5-a]pyrimidine], the “Efficacy in % of the untreated control” value was 54%.
